Experimental data reported in ChEMBL document CHEMBL4732190, “Identification of Potent and Long-Acting Single-Chain Peptide Mimetics of Human Relaxin-2 for Cardiovascular Diseases” (J Med Chem, 2021).
*1 amine or outer side, *2 acyl side, *3 side chain or, on linkers, in order; H or OH if unused. Where a SMILES comes first, the peptide text is derived from it. [ ]: non-standard residue; d: D form. The star is where a group is joined. PEG11 = NCCOCCOCCOCCOCCOCCOCCOCCOCCOCCOCCOCCC(=O)O; X7 = CCCCCCCCCCCCCCCC(=O)[C@H](CCC(N)=O)N*; β2hAla(2S) = C[C@@H](CN[*:1])C(=O)[*:2]; Nle = CCCC[C@H](N)C(=O)O

How the values were obtained:
[1] = Stability in rat plasma assessed as parent compound remaining level at 5 uM remaining after 4 hrs; type: ADME, cell-free; conditions: read-out: Stabilty
[2] = target: T1, Relaxin receptor 1 (Homo sapiens) (UniProt Q9HBX9); experiment: Agonist activity at RXFP1 endogenously expressed in human OVCAR-5 cells assessed as increase in IBMX-induced cAMP accumulation pretreated with IBMX for 40 mins followed by compound addition and measured after 30 mins by HTRF assay relative to relaxin; type: functional, cell-based; conditions: filed as agonist
T1 sequence (whole entry): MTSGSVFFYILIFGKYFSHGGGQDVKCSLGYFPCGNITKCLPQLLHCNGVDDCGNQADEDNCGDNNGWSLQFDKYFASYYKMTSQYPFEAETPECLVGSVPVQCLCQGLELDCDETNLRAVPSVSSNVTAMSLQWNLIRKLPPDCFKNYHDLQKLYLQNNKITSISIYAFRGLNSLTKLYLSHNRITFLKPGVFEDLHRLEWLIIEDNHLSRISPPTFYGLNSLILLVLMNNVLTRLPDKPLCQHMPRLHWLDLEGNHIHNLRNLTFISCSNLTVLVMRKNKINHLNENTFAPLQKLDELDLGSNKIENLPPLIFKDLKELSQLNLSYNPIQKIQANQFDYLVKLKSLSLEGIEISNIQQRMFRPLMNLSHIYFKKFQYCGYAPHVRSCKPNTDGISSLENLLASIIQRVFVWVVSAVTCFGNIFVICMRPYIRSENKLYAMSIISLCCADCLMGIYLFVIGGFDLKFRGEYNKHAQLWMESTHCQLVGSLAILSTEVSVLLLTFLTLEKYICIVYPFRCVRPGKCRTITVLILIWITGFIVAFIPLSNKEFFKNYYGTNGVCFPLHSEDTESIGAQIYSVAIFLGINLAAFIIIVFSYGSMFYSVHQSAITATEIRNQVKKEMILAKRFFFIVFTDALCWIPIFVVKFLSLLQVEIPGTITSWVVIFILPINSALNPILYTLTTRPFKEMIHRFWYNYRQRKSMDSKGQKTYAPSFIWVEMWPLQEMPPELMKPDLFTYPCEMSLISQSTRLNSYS

Relaxin receptor 1 = target: T2, Relaxin receptor 1 (Homo sapiens, UniProt Q9HBX9); experiment: Agonist activity at RXFP1 endogenously expressed in human OVCAR-5 cells assessed as increase in IBMX-induced cAMP accumulation pretreated with IBMX for 40 mins followed by compound addition and measured after 30 mins by HTRF assay; type: functional, cell-based
T2 sequence (Q9HBX9 whole entry): T1 sequence (whole entry)

[3] = Stability in human plasma assessed as parent compound remaining level at 5 uM remaining after 4 hrs; type: ADME, cell-free; conditions: read-out: Stabilty
[4] = Half life in Sprague-Dawley rat at 1 mg/kg, iv measured upto 72 hrs by LC-HRMS analysis; type: ADME, organism-based; conditions: in vivo

SMILES	remaining at 4 h, 5 µM [1]	Emax [2]	EC50 (Relaxin receptor 1)	remaining at 4 h, 5 µM [3]	half-life [4]
CC[C@H](C)[C@H](NC(=O)[C@H](CCC(N)=O)NC(=O)[C@H](C)NC(=O)[C@H](CCCNC(=N)N)NC(=O)[C@@H](NC(=O)[C@H](CCCCN)NC(=O)[C@H](CCC(=O)O)NC(=O)[C@H](CCCNC(=N)N)NC(=O)CNC(=O)[C@H](CCC(=O)O)NC(=O)[C@H](CC(C)C)NC(C)=O)C(C)C)C(=O)NC[C@H](C)C(=O)NC[C@H](C)C(=O)N[C@@H](CCC(=O)O)C(=O)NCC(=O)N[C@@H](CCSC)C(=O)N[C@@H](CO)C(=O)N[C@@H](CCCCN)C(=O)N[C@@H](Cc1c[nH]c2ccccc12)C(=O)N[C@@H](CO)C(=O)N[C@@H](CCCCN)C(=O)N[C@@H](CCCNC(=N)N)C(=O)N[C@@H](CCCCN)C(=O)N[C@@H](CCCCN)C(N)=O (HELM PEPTIDE1{[ac].L.E.G.R.E.K.V.R.A.Q.I.[C[C@@H](CN[*:1])C(=O)[*:2]].[C[C@@H](CN[*:1])C(=O)[*:2]].E.G.M.S.K.W.S.K.R.K.K.[am]}$$$$V2.0)	24%	99%	14 nM	79%	–
CCCCCCCCCCCCCCCC(=O)[C@H](CCC(N)=O)NC(=O)[C@H](CCC(=O)O)NC(=O)[C@H](CCC(=O)O)NC(=O)[C@H](CCCCN)NC(=O)CCOCCOCCOCCOCCOCCOCCOCCOCCOCCOCCOCCNC(=O)[C@H](CCCCN)NC(=O)[C@H](CCCNC(=N)N)NC(=O)[C@@H](C)CNC(=O)[C@H](CO)NC(=O)[C@H](Cc1c[nH]c2ccccc12)NC(=O)[C@@H](NC(=O)[C@H](CO)NC(=O)[C@H](CCCC)NC(=O)[C@H](CCSC)NC(=O)CNC(=O)[C@H](CCC(=O)O)NC(=O)[C@@H](C)CNC(=O)[C@@H](C)CNC(=O)[C@@H](NC(=O)[C@H](CCC(N)=O)NC(=O)[C@H](C)NC(=O)[C@H](CCCNC(=N)N)NC(=O)[C@@H](NC(=O)[C@H](CCCCN)NC(=O)[C@H](CCC(=O)O)NC(=O)[C@H](CCCNC(=N)N)NC(=O)[C@H](CCC(=O)O)NC(=O)CNC(=O)[C@H](CCC(=O)O)NC(=O)[C@H](CC(C)C)NC(C)=O)C(C)C)[C@@H](C)CC)[C@@H](C)O (Ac-LEGEREKVRAQI[β2hAla(2S)][β2hAla(2S)]EGM[Nle]STWS[β2hAla(2S)]RK[PEG11]KEE-X7)	–	74%	3.2 nM	–	6.4 h
CC[C@H](C)[C@H](NC(=O)[C@H](CCC(N)=O)NC(=O)[C@H](C)NC(=O)[C@H](CCCNC(=N)N)NC(=O)[C@@H](NC(=O)[C@H](CC(C)C)NC(=O)[C@H](CCC(=O)O)NC(=O)[C@H](CCCNC(=N)N)NC(=O)CNC(=O)[C@H](CO)NC(=O)[C@H](CC(C)C)NC(=O)[C@H](CCCCN)NC(=O)[C@@H](NC(=O)[C@@H](NC(C)=O)C(C)C)[C@@H](C)CC)C(C)C)C(=O)NC[C@H](C)C(=O)NC[C@H](C)C(=O)N[C@@H](CO)C(=O)NCC(=O)N[C@@H](CCSC)C(=O)N[C@@H](CO)C(=O)N[C@H](C(=O)N[C@@H](Cc1c[nH]c2ccccc12)C(=O)N[C@@H](CO)C(=O)N[C@@H](CCCCN)C(=O)N[C@@H](CCCNC(=N)N)C(=O)N[C@@H](CCCCN)C(=O)N[C@@H](CCCCN)C(N)=O)[C@@H](C)O (HELM PEPTIDE1{[ac].V.I.K.L.S.G.R.E.L.V.R.A.Q.I.[C[C@@H](CN[*:1])C(=O)[*:2]].[C[C@@H](CN[*:1])C(=O)[*:2]].S.G.M.S.T.W.S.K.R.K.K.[am]}$$$$V2.0)	–	99%	92.1 nM	–	–

More lines, in order of falling EC50 (Relaxin receptor 1), values ahead:

remaining at 4 h, 5 µM [1]	Emax [2]	EC50 (Relaxin receptor 1)	remaining at 4 h, 5 µM [3]	half-life [4]	SMILES
–	78%	708 nM	–	–	CC[C@H](C)[C@H](NC(=O)[C@H](CCC(N)=O)NC(=O)[C@H](C)NC(=O)[C@H](CCCNC(=N)N)NC(=O)[C@@H](NC(=O)[C@H](CC(C)C)NC(=O)[C@H](CCC(=O)O)NC(=O)[C@H](CCCNC(=N)N)NC(=O)CNC(=O)[C@H](CO)NC(=O)[C@H](CC(C)C)NC(=O)[C@H](CCCCN)NC(=O)[C@@H](NC(=O)[C@@H](NC(C)=O)C(C)C)[C@@H](C)CC)C(C)C)C(=O)NC[C@H](C)C(=O)N[C@H](C(=O)N[C@@H](CO)C(=O)NCC(=O)N[C@@H](CCSC)C(=O)N[C@@H](CO)C(=O)N[C@H](C(=O)N[C@@H](Cc1c[nH]c2ccccc12)C(=O)N[C@@H](CO)C(=O)N[C@@H](CCCCN)C(=O)N[C@@H](CCCNC(=N)N)C(=O)N[C@@H](CO)C(=O)N[C@@H](CC(C)C)C(N)=O)[C@@H](C)O)[C@@H](C)CC (HELM PEPTIDE1{[ac].V.I.K.L.S.G.R.E.L.V.R.A.Q.I.[C[C@@H](CN[*:1])C(=O)[*:2]].I.S.G.M.S.T.W.S.K.R.S.L.[am]}$$$$V2.0)
–	101%	230 nM	–	–	CC[C@H](C)[C@H](NC(=O)[C@H](CCC(N)=O)NC(=O)[C@H](C)NC(=O)[C@H](CCCNC(=N)N)NC(=O)[C@@H](NC(=O)[C@H](CC(C)C)NC(=O)[C@H](CCC(=O)O)NC(=O)[C@H](CCCNC(=N)N)NC(=O)CNC(=O)[C@H](CO)NC(=O)[C@H](CC(C)C)NC(=O)[C@H](CCCCN)NC(=O)[C@@H](NC(=O)[C@@H](NC(=O)[C@H](CCC(=O)O)NC(=O)[C@H](CCC(=O)O)NC(C)=O)C(C)C)[C@@H](C)CC)C(C)C)C(=O)NC[C@H](C)C(=O)N[C@H](C(=O)N[C@@H](CCC(=O)O)C(=O)NCC(=O)N[C@@H](CCSC)C(=O)N[C@@H](CO)C(=O)N[C@@H](CCCCN)C(=O)N[C@@H](Cc1c[nH]c2ccccc12)C(=O)N[C@@H](CO)C(=O)N[C@@H](CCCCN)C(=O)N[C@@H](CCCNC(=N)N)C(=O)N[C@@H](CCCCN)C(=O)N[C@@H](CCCCN)C(N)=O)[C@@H](C)CC (HELM PEPTIDE1{[ac].E.E.V.I.K.L.S.G.R.E.L.V.R.A.Q.I.[C[C@@H](CN[*:1])C(=O)[*:2]].I.E.G.M.S.K.W.S.K.R.K.K.[am]}$$$$V2.0)
–	98%	124 nM	–	–	CC[C@H](C)[C@H](NC(=O)[C@H](CCC(N)=O)NC(=O)[C@H](C)NC(=O)[C@H](CCCNC(=N)N)NC(=O)[C@@H](NC(=O)[C@H](CCCCN)NC(=O)[C@H](CCC(=O)O)NC(=O)[C@H](CCCNC(=N)N)NC(=O)CNC(=O)[C@H](CCC(=O)O)NC(=O)[C@H](CC(C)C)NC(=O)[C@H](CCCCN)NC(=O)[C@@H](NC(=O)[C@@H](NC(=O)[C@H](CCC(=O)O)NC(=O)[C@H](CCC(=O)O)NC(C)=O)C(C)C)[C@@H](C)CC)C(C)C)C(=O)NC[C@H](C)C(=O)N[C@H](C(=O)N[C@@H](CO)C(=O)NCC(=O)N[C@@H](CCSC)C(=O)N[C@@H](CO)C(=O)N[C@H](C(=O)N[C@@H](Cc1c[nH]c2ccccc12)C(=O)N[C@@H](CO)C(=O)N[C@@H](CCCCN)C(=O)N[C@@H](CCCNC(=N)N)C(=O)N[C@@H](CCCCN)C(=O)N[C@@H](CCCCN)C(N)=O)[C@@H](C)O)[C@@H](C)CC (HELM PEPTIDE1{[ac].E.E.V.I.K.L.E.G.R.E.K.V.R.A.Q.I.[C[C@@H](CN[*:1])C(=O)[*:2]].I.S.G.M.S.T.W.S.K.R.K.K.[am]}$$$$V2.0)
–	99%	23 nM	–	–	CC[C@H](C)[C@H](NC(=O)[C@H](CCC(N)=O)NC(=O)[C@H](C)NC(=O)[C@H](CCCNC(=N)N)NC(=O)[C@@H](NC(=O)[C@H](CCCCN)NC(=O)[C@H](CCC(=O)O)NC(=O)[C@H](CCCNC(=N)N)NC(=O)CNC(=O)[C@H](CCC(=O)O)NC(=O)[C@H](CC(C)C)NC(C)=O)C(C)C)C(=O)NC[C@H](C)C(=O)NC[C@H](C)C(=O)N[C@@H](CCC(=O)O)C(=O)NCC(=O)N[C@@H](CCSC)C(=O)N[C@@H](CO)C(=O)N[C@H](C(=O)N[C@@H](Cc1c[nH]c2ccccc12)C(=O)N[C@@H](CO)C(=O)N[C@@H](CCCCN)C(=O)N[C@@H](CCCNC(=N)N)C(=O)N[C@@H](CCCCN)C(=O)N[C@@H](CCCCN)C(N)=O)[C@@H](C)O (HELM PEPTIDE1{[ac].L.E.G.R.E.K.V.R.A.Q.I.[C[C@@H](CN[*:1])C(=O)[*:2]].[C[C@@H](CN[*:1])C(=O)[*:2]].E.G.M.S.T.W.S.K.R.K.K.[am]}$$$$V2.0)
